How the values were obtained:
[1] = test system: S. aureus Newman; test: Bliss interaction score (quartile over a dose matrix) (fitness difference); higher = more antagonism (negative = synergy)
Summary of the method: (§1)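 Fitness was derived from optical density at entry into stationary phase, divided by the robust mean of the no-drug wells on the same plate. That reading was taken as OD595, and the ratio was capped at 1. Single-drug fitness was inferred from the combination data. The Bliss score, observed fitness minus the expected product of single-drug fitness, was summarised as quartiles over technical, biological and donor/recipient replicates.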

[2] = test system: B. subtilis 168; test: as above
Summary of the method: as §1

[3] = test system: S. pneumoniae D39V; test: as above
Summary of the method: as §1

[4] = test system: S. aureus DSM 20231; test: as above
Summary of the method: as §1

[5] = test system: B. subtilis 168; test: fitness (endpoint OD595 vs no drug) (fraction); higher = more growth
Summary of the method: (§2)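 Fitness was measured as bacterial growth in 384-well plates inoculated at OD595 0.01 (30 µl, or 55 µl for S. pneumoniae). Media were TSB, LB Lennox or CY, at 37 °C. OD595 was read every 30 min for 14 h and background-subtracted against the first reading. Fitness is OD595 at the transition into stationary phase divided by the robust mean of no-drug control wells, capped at 1.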

[6] = test system: S. pneumoniae D39V; test: as above
Summary of the method: as §2
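For Bliss interaction score (quartile over a dose matrix) in this document: first quartile when negative (synergy) and third quartile when positive (antagonism).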

Molecule `O=C(O[C@@H]1Cc2c(O)cc(O)cc2O[C@@H]1c1cc(O)c(O)c(O)c1)c1cc(O)c(O)c(O)c1` [EGCG] + C[C@H]1COc2c(N3CCN(C)CC3)c(F)cc3c(=O)c(C(=O)O)cn1c23 [Levofloxacin] has a Bliss interaction score [1] of -0.0447, a Bliss interaction score [2] of -0.0322 and a Bliss interaction score [3] of -0.092. It also gave a Bliss interaction score [4] of -0.055, a fitness ([5]; first compound 6.25 µg/mL, partner 0.001 µg/mL, one replicate) of 0.993 and a fitness ([5]; first compound 6.25 µg/mL, partner 0.002 µg/mL) of 0.941. For the same molecule, the fitness ([5]; first compound 6.25 µg/mL, partner 0.0039 µg/mL) was 0.89, the fitness ([5]; first compound 6.25 µg/mL, partner 0.0078 µg/mL, one replicate) was 0.88 and the fitness ([5]; first compound 6.25 µg/mL, partner 0.0312 µg/mL) was 0.05. For the same molecule, the fitness ([5]; first compound 6.25 µg/mL, partner 0.0625 µg/mL) was 0.0332, the fitness ([5]; first compound 6.25 µg/mL, partner 0.125 µg/mL) was 0.058 and the fitness ([5]; first compound 12.5 µg/mL, partner 0.001 µg/mL, one replicate) was 0.712. It also gave a fitness ([5]; first compound 12.5 µg/mL, partner 0.0039 µg/mL) of 0.629, a fitness ([5]; first compound 12.5 µg/mL, partner 0.0078 µg/mL, one replicate) of 0.788 and a fitness ([5]; first compound 12.5 µg/mL, partner 0.0312 µg/mL) of 0.038. For the same molecule, the fitness ([5]; first compound 12.5 µg/mL, partner 0.0625 µg/mL) was 0.0286, the fitness ([5]; first compound 12.5 µg/mL, partner 0.125 µg/mL) was 0.0419 and the fitness ([5]; first compound 25 µg/mL, partner 0.001 µg/mL, one replicate) was 0.276. The fitness ([5]; first compound 25 µg/mL, partner 0.0078 µg/mL, one replicate) was 0.668, the fitness ([5]; first compound 25 µg/mL, partner 0.0312 µg/mL) was 0.0206 and the fitness ([5]; first compound 25 µg/mL, partner 0.0625 µg/mL) was 0.0506. The fitness ([5]; first compound 25 µg/mL, partner 0.125 µg/mL) was 0.0505, the fitness ([6]; first compound 12.5 µg/mL, partner 0.1725 µg/mL) was 0.876 and the fitness ([6]; first compound 12.5 µg/mL, partner 0.2 µg/mL) was 0.925. The fitness ([6]; first compound 12.5 µg/mL, partner 0.345 µg/mL) was 0.804, the fitness ([6]; first compound 12.5 µg/mL, partner 0.4 µg/mL) was 0.832 and the fitness ([6]; first compound 12.5 µg/mL, partner 0.8 µg/mL) was 0.333. For the same molecule, the fitness ([6]; first compound 25 µg/mL, partner 0.1725 µg/mL) was 0.815, the fitness ([6]; first compound 25 µg/mL, partner 0.2 µg/mL) was 0.904 and the fitness ([6]; first compound 25 µg/mL, partner 0.345 µg/mL) was 0.733. The fitness ([6]; first compound 25 µg/mL, partner 0.4 µg/mL) was 0.826, the fitness ([6]; first compound 25 µg/mL, partner 0.69 µg/mL) was 0.777 and the fitness ([6]; first compound 25 µg/mL, partner 0.8 µg/mL) was 0.262. The fitness ([6]; first compound 50 µg/mL, partner 0.1725 µg/mL) was 0.868, the fitness ([6]; first compound 50 µg/mL, partner 0.2 µg/mL) was 0.845 and the fitness ([6]; first compound 50 µg/mL, partner 0.345 µg/mL) was 0.897. It also gave a fitness ([6]; first compound 50 µg/mL, partner 0.4 µg/mL) of 0.671 and a fitness ([6]; first compound 50 µg/mL, partner 0.8 µg/mL) of 0.337.
With `CCC[C@@H]1C[C@@H](C(=O)N[C@@H]([C@H]2O[C@H](SC)[C@H](O)[C@@H](O)[C@H]2O)[C@@H](C)O)N(C)C1` [Lincomycin] + CCC(C)C1C(=O)NC(=C)C(=O)NC(C(=O)NC(CSCC(C(=O)N1)NC(=O)/C(=C/C)/NC(=O)C(C(C)CC)N)C(=O)NC2C(SCC(NC(=O)CNC(=O)C3CCCN3C2=O)C(=O)NC(CCCCN)C(=O)NC4C(SCC(NC(=O)CNC(=O)C(NC(=O)C(NC(=O)C(NC(=O)CNC4=O)C)CC(C)C)CCSC)C(=O)NC(CC(=O)N)C(=O)NC(CCSC)C(=O)NC(CCCCN)C(=O)NC5C(SCC6C(=O)NC(C(=O)NC(CSC(C(C(=O)N6)NC(=O)C(NC5=O)C)C)C(=O)NC(CO)C(=O)NC(C(C)CC)C(=O)NC(CC7=CN=CN7)C(=O)NC(C(C)C)C(=O)NC(=C)C(=O)NC(CCCCN)C(=O)O)CC8=CN=CN8)C)C)C)CC(C)C [Nisin] the Bliss interaction score ([1]; main component drawn) was 0.0755, the Bliss interaction score ([2]; main component drawn) was 0.0535 and the Bliss interaction score ([3]; main component drawn) was -0.0491. The Bliss interaction score ([4]; main component drawn) was 0.117, the fitness ([5]; first compound 0.1 µg/mL, partner 0.5 µg/mL, main component drawn) was 0.888 and the fitness ([5]; first compound 0.1 µg/mL, partner 1 µg/mL, main component drawn) was 0.873. For the same molecule, the fitness ([5]; first compound 0.1 µg/mL, partner 2 µg/mL, main component drawn) was 0.542, the fitness ([5]; first compound 0.1 µg/mL, partner 4 µg/mL, one replicate, main component drawn) was 0.432 and the fitness ([5]; first compound 0.1 µg/mL, partner 8 µg/mL, one replicate, main component drawn) was 0.0171. For the same molecule, the fitness ([5]; first compound 0.1 µg/mL, partner 16 µg/mL, one replicate, main component drawn) was 0.0218, the fitness ([5]; first compound 0.2 µg/mL, partner 0.5 µg/mL, main component drawn) was 0.866 and the fitness ([5]; first compound 0.2 µg/mL, partner 1 µg/mL, main component drawn) was 0.839. It also gave a fitness ([5]; first compound 0.2 µg/mL, partner 2 µg/mL, main component drawn) of 0.58, a fitness ([5]; first compound 0.2 µg/mL, partner 4 µg/mL, one replicate, main component drawn) of 0.212 and a fitness ([5]; first compound 0.2 µg/mL, partner 8 µg/mL, one replicate, main component drawn) of 0.0182. For the same molecule, the fitness ([5]; first compound 0.2 µg/mL, partner 16 µg/mL, one replicate, main component drawn) was 0.0151, the fitness ([5]; first compound 0.4 µg/mL, partner 0.5 µg/mL, main component drawn) was 0.903 and the fitness ([5]; first compound 0.4 µg/mL, partner 1 µg/mL, main component drawn) was 0.876. For the same molecule, the fitness ([5]; first compound 0.4 µg/mL, partner 1.25 µg/mL, one replicate, main component drawn) was 0.885, the fitness ([5]; first compound 0.4 µg/mL, partner 1.6 µg/mL, one replicate, main component drawn) was 0.635 and the fitness ([5]; first compound 0.4 µg/mL, partner 2 µg/mL, main component drawn) was 0.643. For the same molecule, the fitness ([5]; first compound 0.4 µg/mL, partner 2.5 µg/mL, one replicate, main component drawn) was 0.621, the fitness ([5]; first compound 0.4 µg/mL, partner 3.2 µg/mL, one replicate, main component drawn) was 0.0271 and the fitness ([5]; first compound 0.4 µg/mL, partner 4 µg/mL, one replicate, main component drawn) was 0.202. The fitness ([5]; first compound 0.4 µg/mL, partner 5 µg/mL, one replicate, main component drawn) was 0.0364, the fitness ([5]; first compound 0.4 µg/mL, partner 6.4 µg/mL, one replicate, main component drawn) was 0.0378 and the fitness ([5]; first compound 0.4 µg/mL, partner 8 µg/mL, one replicate, main component drawn) was 0.0085. The fitness ([5]; first compound 0.4 µg/mL, partner 16 µg/mL, one replicate, main component drawn) was 0.0174, the fitness ([5]; first compound 0.8 µg/mL, partner 1.25 µg/mL, one replicate, main component drawn) was 0.858 and the fitness ([5]; first compound 0.8 µg/mL, partner 1.6 µg/mL, one replicate, main component drawn) was 0.572. It also gave a fitness ([5]; first compound 0.8 µg/mL, partner 2.5 µg/mL, one replicate, main component drawn) of 0.573, a fitness ([5]; first compound 0.8 µg/mL, partner 3.2 µg/mL, one replicate, main component drawn) of 0.0171 and a fitness ([5]; first compound 0.8 µg/mL, partner 5 µg/mL, one replicate, main component drawn) of 0.065. For the same molecule, the fitness ([5]; first compound 0.8 µg/mL, partner 6.4 µg/mL, one replicate, main component drawn) was 0.035, the fitness ([5]; first compound 1.6 µg/mL, partner 1.25 µg/mL, one replicate, main component drawn) was 0.836 and the fitness ([5]; first compound 1.6 µg/mL, partner 1.6 µg/mL, one replicate, main component drawn) was 0.571. It also gave a fitness ([5]; first compound 1.6 µg/mL, partner 2.5 µg/mL, one replicate, main component drawn) of 0.356, a fitness ([5]; first compound 1.6 µg/mL, partner 3.2 µg/mL, one replicate, main component drawn) of 0.0205 and a fitness ([5]; first compound 1.6 µg/mL, partner 5 µg/mL, one replicate, main component drawn) of 0.0299. It also gave a fitness ([5]; first compound 1.6 µg/mL, partner 6.4 µg/mL, one replicate, main component drawn) of 0.0358, a fitness ([6]; first compound 0.2 µg/mL, partner 0.4275 µg/mL, main component drawn) of 0.751 and a fitness ([6]; first compound 0.2 µg/mL, partner 0.855 µg/mL, main component drawn) of 0.816. The fitness ([6]; first compound 0.2 µg/mL, partner 1.71 µg/mL, main component drawn) was 0.0439, the fitness ([6]; first compound 0.215 µg/mL, partner 3.2 µg/mL, main component drawn) was 0.0034 and the fitness ([6]; first compound 0.215 µg/mL, partner 6.4 µg/mL, main component drawn) was 0.0021. The fitness ([6]; first compound 0.4 µg/mL, partner 0.4275 µg/mL, main component drawn) was 0.711, the fitness ([6]; first compound 0.4 µg/mL, partner 0.855 µg/mL, main component drawn) was 0.197 and the fitness ([6]; first compound 0.4 µg/mL, partner 1.71 µg/mL, main component drawn) was 0.03. For the same molecule, the fitness ([6]; first compound 0.43 µg/mL, partner 3.2 µg/mL, main component drawn) was 0.0144, the fitness ([6]; first compound 0.43 µg/mL, partner 6.4 µg/mL, main component drawn) was 0.0124 and the fitness ([6]; first compound 0.8 µg/mL, partner 0.4275 µg/mL, main component drawn) was 0.188. The fitness ([6]; first compound 0.8 µg/mL, partner 0.855 µg/mL, main component drawn) was 0.124, the fitness ([6]; first compound 0.8 µg/mL, partner 1.71 µg/mL, main component drawn) was 0.0586 and the fitness ([6]; first compound 0.86 µg/mL, partner 1.6 µg/mL, main component drawn) was 0.0707. The fitness ([6]; first compound 0.86 µg/mL, partner 3.2 µg/mL, main component drawn) was 0.0001 and the fitness ([6]; first compound 0.86 µg/mL, partner 6.4 µg/mL, main component drawn) was 0.0011.

Source: the supplement of paper PMC10627819
